In brackets after ≈: the same amount, converted by molar mass.
Legend:
[1] = tested on: common Gram-positive and Gram-negative respiratory bacteria; assay: pulmonary surfactant interaction, overall effect of BPS on MIC and MICRZ; type: cell-based; settings: 2.5% (v/v) BPS; all tested strains or isolates
Method: Antibacterial susceptibility testing was measured by JMI Labs (North Liberty, Iowa, USA). […] These clinical isolates were collected from US (n=4), Mexico (n=2), and Italy (n=1). Susceptibility testing was performed by broth microdilution in accordance with the Clinical and Laboratory and Standards Institute (CLSI) guidelines M07-A10 (2015) and the standard operating procedures at JMI laboratories. Minimum inhibitory concentrations (MICS) were based on CLSI criteria (2015). There are no published breakpoints for iclaprim. E. coli, K. pneumoniae, M. catarrhalis, E. faecalis, and S. aureus were tested in cation-adjusted Mueller-Hinton broth (CA-MHB). […]
Because bovine pulmonary surfactant can introduce cloudiness to the MIC testing media, antimicrobial growth inhibition was also evaluated using the colorimetric metabolic indicator resazurin (Camlab Ltd., Cambridge, UK). […] Growth inhibition was then evaluated as a visible color change from blue (no growth) to pink (robust growth) and recorded as a MIC1z value.
(§1) The MICs of iclaprim, levofloxacin, and daptomycin were determined against Gram-positive and Gram-negative isolates.
A new vial of bovine pulmonary surfactant (BPS; Survanta®; Abbott Laboratories, Columbus, Ohio) was utilized for each independent experiment. […] MICs of daptomycin were determined in CAMHB with the Ca^2+ content adjusted to 50 mg/L.

[2] = tested on: isolated rabbit Purkinje fibers
[3] = tested on: M. catarrhalis Clinical Isolate 893806; assay: MIC with/without bovine pulmonary surfactant; type: cell-based; settings: Moraxella catarrhalis, 2.5% v/v BPS, read-out: MIC, Resazurin: +BPS
Method: Antibacterial susceptibility testing was measured by JMI Labs (North Liberty, Iowa, USA). […] These clinical isolates were collected from US (n=4), Mexico (n=2), and Italy (n=1). Susceptibility testing was performed by broth microdilution in accordance with the Clinical and Laboratory and Standards Institute (CLSI) guidelines M07-A10 (2015) and the standard operating procedures at JMI laboratories. Minimum inhibitory concentrations (MICS) were based on CLSI criteria (2015). There are no published breakpoints for iclaprim. E. coli, K. pneumoniae, M. catarrhalis, E. faecalis, and S. aureus were tested in cation-adjusted Mueller-Hinton broth (CA-MHB). S. pneumoniae were tested in CA-MHB supplemented with 2.5-5% lysed horse blood, and H. influenza were tested in Haemophilus test medium. Quality control and interpretation of results were performed in accordance with CLSI M100-S26 (2016) methods. QC ranges for iclaprim were those approved by CLSI and published in M100-S26 (2016). Iclaprim and comparator antibiotic MIC results were within the CLSI published ranges against E. coli ATCC 25922, E. faecalis ATCC 29212, E. faecalis ATCC 33186, H. influenzae ATCC 49247, K. pneumoniae ATCC 700603 (ESBL phenotype), S. aureus ATCC 29213, and S. pneumoniae ATCC 49619. Isolates were tested with MIC panels (ThermoFisher Scientific, Cleveland, Ohio, USA) of comparator antibiotics (daptomycin and levofloxacin).
Because bovine pulmonary surfactant can introduce cloudiness to the MIC testing media, antimicrobial growth inhibition was also evaluated using the colorimetric metabolic indicator resazurin (Camlab Ltd., Cambridge, UK). […] S. pneumoniae panels were omitted from resazurin analysis because the color change was obscured by the lysed horse blood present in the test medium. Growth inhibition was then evaluated as a visible color change from blue (no growth) to pink (robust growth) and recorded as a MIC1z value.
as §1
A new vial of bovine pulmonary surfactant (BPS; Survanta®; Abbott Laboratories, Columbus, Ohio) was utilized for each independent experiment. Each vial was mixed thoroughly and a 100 μL aliquot was spread on an agar plate, which was incubated overnight to confirm sterility. […] The concentration of surfactant was expressed in terms of percent volume of Survanta® suspension, which consisted of phospholipid (25 mg/mL) and surfactant proteins (<1 mg/mL) in 0.9% sodium chloride solution (Goerke, 1998). MICs of daptomycin were determined in CAMHB with the Ca^2+ content adjusted to 50 mg/L.

S. aureus = settings: worldwide surveillance studies; cited from earlier work
L-type calcium channel = L-type calcium channel (Homo sapiens, UniProt Q13936); assay: L-type calcium channel inhibition; type: cell-based
QTc interval [4] = assay: single-dose ECG study in healthy human volunteers (1.6 and 3.2 mg/kg); type: in vivo; settings: 3.2 mg/kg infused over 30 minutes
Method: Based on this, a single-dose ECG-study was conducted in healthy human volunteers, where 1.6 mg/kg and 3.2 mg/kg iclaprim was infused over 30 minutes. […] Maximal increases coincided with Cmax levels and were rapidly reversible. Weight-based dosing with 1.6 mg/kg was thus assessed as acceptable for clinical purposes, whereas weight-based dosing at 3.2 mg/kg was associated with relevant QTc prolongations (>60 msec) and nonspecific T-wave alterations, and was not used for further clinical studies.

QTc interval [5] = settings: human, in vivo
Method: A second single-dose ECG study was conducted on healthy human volunteers using weight-based doses of 0.4 mg/kg and 0.8 mg/kg iclaprim base infused over 30 minutes and 1.6 mg/kg infused over 60 minutes.

[6] = 13-week toxicology study in the marmoset, AUC at NOAEL; type: in vivo; settings: marmoset females
[7] = tested on: methicillin-resistant Staphylococcus aureus (MRSA) isolates nonsusceptible to daptomycin, linezolid or vancomycin; assay: broth microdilution susceptibility of MRSA nonsusceptible to daptomycin, linezolid or vancomycin; type: cell-based
Method: Antibacterial susceptibility testing was conducted on a range of MRSA strains and isolates with varying susceptibilities to several recognized antistaphylococcal antibiotics. Susceptibility testing was performed by broth microdilution in accordance with the Clinical and Laboratory and Standards Institute (CLSI) guidelines. Minimum inhibitory concentrations (MICs) were based on CLSI criteria.

Chain of L-type calcium channel (Q13936 whole entry, the tested form may be a part): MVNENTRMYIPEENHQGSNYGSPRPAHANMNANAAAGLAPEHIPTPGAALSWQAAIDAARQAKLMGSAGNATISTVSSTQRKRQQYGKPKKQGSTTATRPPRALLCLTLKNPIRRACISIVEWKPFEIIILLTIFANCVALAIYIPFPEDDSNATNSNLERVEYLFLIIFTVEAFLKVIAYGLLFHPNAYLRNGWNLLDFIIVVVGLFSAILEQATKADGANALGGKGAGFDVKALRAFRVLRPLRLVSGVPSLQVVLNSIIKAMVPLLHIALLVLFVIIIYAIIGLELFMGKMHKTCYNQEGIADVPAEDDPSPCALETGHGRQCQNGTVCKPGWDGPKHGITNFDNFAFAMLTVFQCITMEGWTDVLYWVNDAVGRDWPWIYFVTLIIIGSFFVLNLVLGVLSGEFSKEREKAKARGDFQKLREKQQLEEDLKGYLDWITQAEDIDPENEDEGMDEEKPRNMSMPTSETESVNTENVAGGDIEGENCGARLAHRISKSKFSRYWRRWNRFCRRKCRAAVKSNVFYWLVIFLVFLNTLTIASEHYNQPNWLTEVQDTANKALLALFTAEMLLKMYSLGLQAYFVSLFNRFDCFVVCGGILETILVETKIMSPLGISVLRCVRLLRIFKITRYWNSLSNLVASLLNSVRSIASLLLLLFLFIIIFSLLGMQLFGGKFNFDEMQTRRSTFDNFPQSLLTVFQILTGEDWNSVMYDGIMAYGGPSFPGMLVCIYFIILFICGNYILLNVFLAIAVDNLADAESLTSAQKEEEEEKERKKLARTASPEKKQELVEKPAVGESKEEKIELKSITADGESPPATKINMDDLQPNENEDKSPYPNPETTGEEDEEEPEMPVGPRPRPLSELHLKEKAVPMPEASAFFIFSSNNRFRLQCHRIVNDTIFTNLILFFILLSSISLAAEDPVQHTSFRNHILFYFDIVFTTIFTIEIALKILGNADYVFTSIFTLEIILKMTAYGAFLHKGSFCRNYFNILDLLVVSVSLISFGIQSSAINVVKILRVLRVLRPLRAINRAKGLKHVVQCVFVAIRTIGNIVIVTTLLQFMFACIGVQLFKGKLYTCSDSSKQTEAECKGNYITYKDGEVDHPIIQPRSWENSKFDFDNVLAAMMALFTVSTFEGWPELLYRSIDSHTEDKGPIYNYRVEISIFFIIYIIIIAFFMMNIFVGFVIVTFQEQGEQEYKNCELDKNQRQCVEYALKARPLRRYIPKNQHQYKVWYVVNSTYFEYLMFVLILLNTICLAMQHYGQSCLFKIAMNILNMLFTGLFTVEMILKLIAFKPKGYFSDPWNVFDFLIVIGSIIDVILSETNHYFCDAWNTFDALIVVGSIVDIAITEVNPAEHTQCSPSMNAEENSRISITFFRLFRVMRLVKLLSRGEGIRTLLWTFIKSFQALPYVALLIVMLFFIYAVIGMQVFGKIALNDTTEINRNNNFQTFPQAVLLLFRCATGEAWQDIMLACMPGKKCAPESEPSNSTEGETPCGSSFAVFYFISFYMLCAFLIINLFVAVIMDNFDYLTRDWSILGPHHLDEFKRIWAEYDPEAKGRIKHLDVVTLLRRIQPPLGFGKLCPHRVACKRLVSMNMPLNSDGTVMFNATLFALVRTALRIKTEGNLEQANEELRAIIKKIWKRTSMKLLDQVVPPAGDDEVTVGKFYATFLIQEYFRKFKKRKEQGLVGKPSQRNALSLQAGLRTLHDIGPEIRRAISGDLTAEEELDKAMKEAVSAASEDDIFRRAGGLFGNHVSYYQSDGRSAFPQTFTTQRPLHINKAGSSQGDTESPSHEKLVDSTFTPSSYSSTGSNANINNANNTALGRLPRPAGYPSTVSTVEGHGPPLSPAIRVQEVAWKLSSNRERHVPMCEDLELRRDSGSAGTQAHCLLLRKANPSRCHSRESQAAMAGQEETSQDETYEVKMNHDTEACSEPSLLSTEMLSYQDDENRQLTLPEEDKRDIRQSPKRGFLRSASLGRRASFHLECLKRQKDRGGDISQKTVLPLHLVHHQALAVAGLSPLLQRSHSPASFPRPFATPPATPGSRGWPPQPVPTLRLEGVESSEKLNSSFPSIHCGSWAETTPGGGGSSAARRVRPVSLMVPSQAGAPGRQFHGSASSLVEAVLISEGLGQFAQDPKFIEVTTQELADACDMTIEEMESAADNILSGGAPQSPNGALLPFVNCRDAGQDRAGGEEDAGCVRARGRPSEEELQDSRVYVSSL

In the case of `COc1cc(Cc2cnc(N)nc2N)c2c(c1OC)OC(C1CC1)C=C2` (racemic) [Iclaprim], the “effect of BPS on MIC and MICRZ values” [1] is reported as “minimal or no effect”, the “concentration at which action potential duration was increased” value [2] is reported as “above 1 μM” and the MIC [3] is reported as 8 µg/mL (≈ 22.6 µM). For the same molecule, the MIC90 (S. aureus) was 0.12 µg/mL (≈ 0.339 µM), the IC50 (L-type calcium channel) was 46 µM and the QTc prolongation (QTc interval [4]) was over 60 ms. The “post-infusion QTcF prolongation from baseline (no subject above)” value (QTc interval [5]) was at most 60 ms, the “AUC achieved at the NOAEL” value [6] was 26,600 hr×ng/mL and the “isolates with MIC≤1 μg/ml” value ([7]; MRSA nonsusceptible to daptomycin (5 of 7)) was 71.4%. The “isolates with MIC≤1 μg/ml” value ([7]; MRSA nonsusceptible to linezolid (25 of 25)) was 100% and the “isolates with MIC≤1 μg/ml” value ([7]; MRSA nonsusceptible to vancomycin (18 of 27)) was 66.7%.

From US20190117653A1, “SYSTEMS AND METHODS FOR TREATING BACTERIAL INFECTION” (priority 2016, published 2019)
